Data: patent US10918657B2 (priority 2013, dated 2021)

Legend:
[1] = tested on: giant reticulospinal (RS) neurons; parameters: species or system Petromyzon marinus; conditions: in vivo
[2] = tested on: giant reticulospinal (RS) neurons; parameters: species or system Petromyzon marinus; conditions: in vivo; remark: listed apart in the source
lamprey γ-synuclein = format: biochemical, Petromyzon marinus; conditions: 100 pM synuclein, varying CLR01 concentrations
Protocol: After purification of GST-tagged lamprey γ-synuclein, GST was cleaved off using thrombin (10 U/mg protein; GE Healthcare). Untagged γ-synuclein was then separated from GST and thrombin using Glutathione Sepharose 4B beads and p-aminobenzamidine agarose ([…]/50 U thrombin; Sigma A7155), respectively, and dialyzed into 0.1M PBS, pH 7.4. Aggregation of the purified lamprey γ-synuclein was analyzed using the thioflavin T (ThT) fluorescence assay and electron microscopy as described previously (Roychaudhuri et al. (2014) J. Mol. Biol. 426: 2422-2441), except that 100 pM synuclein and varying CLR01 concentrations were used.

α-synuclein = α-synuclein (Homo sapiens, UniProt P37840); conditions: cited from earlier work
[3] = tested on: α-synuclein neurotoxicity; conditions: in vivo; cited from earlier work
[4] = tested on: Aβ and hyperphosphorylated tau; conditions: mouse, in vivo; cited from earlier work

| Compound | survival of the giant RS neurons at the population level (Nissl (+)) [1] | synuclein immunofluorescence intensity in good survivors [2] | synuclein immunofluorescence intensity in poor survivors [2] | inhibition of lamprey γ-synuclein aggregation (ThT fluorescence) (lamprey γ-synuclein) | increase in neuronal survival across the entire RS neuron population [1] | increase of percentage of Nissl (+) "poor survivors" [1] | effect on α-synuclein clearance in vitro (α-synuclein) | effect on α-synuclein self-assembly and toxicity in vitro (α-synuclein) | effect on neurodegeneration and survival in zebrafish model [3] | synuclein immunofluorescence intensity in "good survivors" [2] | synuclein immunofluorescence intensity in "poor survivors" [2] | effect on accumulation of Aβ and hyperphosphorylated tau [4] |
| --- | --- | --- | --- | --- | --- | --- | --- | --- | --- | --- | --- | --- |
| 5′-CGC cTg CAT TgC TCT TTg TTT cTC T-3′ [MM MO] | 60.0±8.0 | 26.0±2.4 AU | 40.7±3.7 AU |  |  |  |  |  |  |  |  |  |
| O=P(O)(O)Oc1c2c(c(OP(=O)(O)O)c3c1[C@H]1C[C@@H]3c3cc4c(cc31)[C@H]1C[C@@H]4c3ccccc31)[C@H]1C[C@@H]2c2cc3c(cc21)[C@H]1C[C@@H]3c2ccccc21 [CLR01] |  |  |  | inhibited by CLR01 in a dose-dependent manner | 22% | more than 4 fold | facilitates α-synuclein clearance in vitro | inhibits a-synuclein self-assembly and toxicity in vitro | reduces neurodegeneration and improves survival | 5.6±1.3 AU | 25.7±3.1 AU | reduce accumulation of Aβ and hyperphosphorylated tau |
| 5′-[…]-3′ [Con MO] | 56.7±5.7 | 25.7±1.9 AU | 42.6±3.5 AU |  |  |  |  |  |  |  |  |  |
